Source: US20210179680A1, “POLYPEPTIDE, DERIVATIVES THEREOF, AND APPLICATION THEREOF IN PREPARATION OF DRUGS HAVING RESISTANCE TO PULMONARY FIBROSIS” (priority 2016, published 2021)
Bridge positions count the residues as written; N and C are the ends. Square brackets hold non-standard residues; d marks the D form. Peptide text beside a SMILES is read from it. S5 = C=CCCC[C@](C)(N)C(=O)O

Columns and labels:
Format in all cases: in vivo, C57BL/6 mice
[1] = test system: mice with bleomycin-induced pulmonary fibrosis; assay: Hydroxyproline content in lung of mice with pulmonary fibrosis; details: 2 mg/kg i.p.; for hydroxyproline content (μg/mg protein): left lung lobes, chloramine-T method; for content of hydroxyproline in the lungs (in words): versus bleomycin group
Method: (§1) Male C57BL/6 mice were fasted overnight, then anesthetized with 45 mg/kg sodium pentobarbital by injection intraperitoneally (i.p.), and intratracheally injected with bleomycin at a dose of 3 U/kg. The specific operation steps are as follows: cut the neck skin of the mouse with as little trauma as possible, expose the trachea with the assistance of elbow ophthalmic forceps, puncture the trachea and inject about 50 μL of bleomycin into the trachea with a microsyringe, rotate the mouse quickly and stand it upright for 5 minutes in order to make bleomycin evenly enter the left and right lobe, thereby constructing an animal model. The whole operation was performed at a surgical table at about […]. Mice in the sham operation group were intratracheally injected with an equal amount of physiological saline for injection.
(§2) Hydroxyproline accounts for 13.4% (w/w) of collagen, and extremely small amount of elastin, while it is absent in other proteins. […] Pulmonary fibrosis models were prepared according to the method described in Example 2 and administered in groups according to Table 3. The content of hydroxyproline in the lobes of left lung of the animals was measured 28 days later, and the condition of pulmonary fibrosis was evaluated.
The specific method is as follows: the mice in the animal model prepared in Example 2 was feed in a SPF animal room and treated with polypeptide according to the dosing schedule of Table 3, and all left lobes of lung of the experimental animal was taken on the 21st day after the animal model was constructed and the wet weight was recorded. Then 10% (w/w) tissue homogenate was prepared by ultrasonic homogenization using physiological saline. About 150 μL of homogenate supernatant was taken, and 500 μL of alkali hydrolysate was added (provided by Hydroxyproline alkaline hydrolysis kit of Nanjing Jiancheng Bioengineering Technology Co., Ltd.). After vortex mixing, the mixture was treated with alkaline hydrolysis for 40 min under conditions of 120° C., 0.1 Kpa. After adjusting the pH value, the volume was held constant, and the supernatant was taken after performing activated carbon treatment. The hydroxyproline was determined according to the chloramine-T method (the method of the present example refers to the instruction provided with kit, which was purchased from Nanjing Jiancheng Bioengineering Technology Co., Ltd.). […] In FIG. 10, “##” represents that P value is less than 0.01 when comparing the content of hydroxyproline in the administration group with that in the sham operation group; and “*” represents that P value is less than 0.05 and“**” represents that P value is less than 0.01 when comparing the content of hydroxyproline in the administration group with that in bleomycin group.
as §2, with “collagen, and accounts for extremely small” for “collagen, and extremely small”, “in the all lobes of” for “in the lobes of”
The specific method is as follows: the mice in the animal model prepared in Example 2 was feed in an SPF animal room and treated with polypeptide according to the dosing schedule of Table 3, and all the left lobes of lung of the experimental animal was taken on the 21st day after the animal model was constructed and the wet weight was recorded. Then 10% (w/w) tissue homogenate was prepared by ultrasonic homogenization using physiological saline. About 150 μL of homogenate supernatant was taken, and 500 μL of alkali hydrolysate was added (provided by Hydroxyproline alkaline hydrolysis kit of Nanjing Jiancheng Bioengineering Technology Co., Ltd.). After vortex mixing, the mixture was treated with alkaline hydrolysis for 40 min under conditions of 120° C., 0.1 Kpa. […]

[2] = test system: mice with bleomycin-induced pulmonary fibrosis; assay: Pulmonary function (Flexivent) in mice with pulmonary fibrosis; details: 2 mg/kg i.p.
Method: as §1
(§3) Pulmonary function is a gold indicator for clinical detection of pulmonary fibrosis in patients. The decline of lung function is generally accompanied by an aggravation of fibrosis, while the improvement of lung function generally represents the recovery of lung tissue structure. Pulmonary fibrosis models were prepared according to the method described in Example 2 and administered in groups according to Table 3. On the 28th day after the construction of the animal model, the mice were anesthetized with sodium pentobarbital (45 mg/kg, i.p.). Lung function was tested by the Flexivent Small-animal respiratory mechanics and the testing methods were TLC and SnapShots (Testing method refers to Lv X, Wang X, Li K, et al. Rupatadine Protects against Pulmonary Fibrosis by Attenuating PAF-Mediated Senescence in Rodents [J]. PloS one, 2013, 8(7): e68631).
as §3, with “lung function also generally represents” for “lung function generally represents”, “to Table 9. 28 days later, the mice” for “to Table 3. On the 28th day after the construction of the animal model, the mice”, “Senescence in Rodents[J]. PloS one,” for “Senescence in Rodents [J]. PloS one,”

[3] = test system: mice with bleomycin-induced pulmonary fibrosis; assay: HE staining pathomorphology and inflammatory score of bleomycin-induced pulmonary fibrosis; details: 2 mg/kg i.p., after 28 days, grade 0-5; for Inflammatory score: Table 3 groups; for Inflammatory scoring: Table 9 groups
Method: as §1
General tissue changes and tissue products can be visualized by HE staining method, namely Hematoxylin and Eosin staining method, which is the most commonly used staining method for morphology. Among them, hematoxylin dyeing solution is an alkaline dyeing solution, which mainly makes the chromatin in the nucleus and the ribosome in the cytoplasm purple blue; eosin is an acid dye, which mainly makes the components in the cytoplasm and extracellular matrix red. Pulmonary fibrosis models were made according to the method described in Example 2 and administered in groups according to Table 3. After 28 days, the right lower lobe of lung tissue of the experimental animals was taken, and fixed with 4% (v/v) paraformaldehyde and embedded in paraffin. Section was performed on the largest cross-section of the paraffin block in which the lung tissue embedded, and basic pathological changes was observed through HE staining. […] The administration of polypeptides S1-S11 can reduce lung inflammation caused by bleomycin, and effectively ameliorate lung injury and restore normal lung structure.
The inflammatory grading was observed according to the results of HE staining, and the criteria were as follows (grade 0-5): grade “0”: normal tissue; grade “1”: extremely small inflammatory changes; grade “2”: mild to moderate inflammatory changes without apparent destruction of lung tissue structure; grade “3”: moderate inflammatory injury (thickening of alveolar diaphragm); grade “4”: moderate to severe inflammatory injury with formation of tissue mass, or the normal structure of lung tissue was destroyed by localized pneumonia area; grade “5”: severe inflammatory injury, severe destruction of the localized lung tissue structure, resulting in closure of lumen.
Pulmonary fibrosis models were made according to the method described in Example 2 and administered in groups according to Table 9. After 28 days, the right lower lobe of lung tissue of the experimental animals was taken, and fixed by 4% (v/v) paraformaldehyde and embedded in paraffin. Section was performed on the largest cross-section of the paraffin block in which the lung tissue embedded, and basic pathological changes was observed through HE staining.

[4] = Table 3 groups, 28th day after model construction

In the case of `CSCC[C@H](NC(=O)[C@H](CC(C)C)NC(=O)[C@@H](N)Cc1c[nH]cn1)C(=O)N[C@@H](C)C(=O)N[C@@H](CS)C(=O)N[C@@H](Cc1ccccc1)C(=O)N[C@H](C(=O)N[C@@H](CS)C(=O)N[C@@H](C)C(=O)N[C@@]1(C)CCCC=CCCC[C@@](C)(C(=O)N[C@@H](CCCNC(=N)N)C(=O)O)NC(=O)[C@H](CCCCN)NC(=O)[C@H](CC(C)C)NC(=O)[C@H](CCCCN)NC1=O)[C@@H](C)O` [S10, His-Leu-Met-Ala-Cys-Phe-Thr-Cys-Ala-S5-Lys-Leu-Lys-S5-Arg] (H-HLMACFTCA[S5]KLK[S5]R-OH; staple 10-14; N-terminus and C-terminus assumed), the “hydroxyproline content (μg/mg protein)” value ([1]; Table 3 groups) was 0.8163 μg/mg protein, the “Dynamic compliance (mL/cmH2O)” value [2, 4] was 0.2333 mL/cmH2O and the “Dynamic elasticity (cmH2O./mL)” value [2, 4] was 49.5 cmH2O./mL. For the same compound, the “Dynamic resistance (cmH2O · s/Ml)” value [2, 4] was 1.367 cmH2O · s/Ml, the “Inspiratory capacity” value [2, 4] was 0.562 mL and the “pulmonary function of mice with pulmonary fibrosis (in words)” value (shortened to “pulmonary function of mice”) ([2]; Table 3 groups, FIG. 11) was “improved”. It also gave an Inflammatory score [3] of 3.
For `CSCC[C@H](NC(=O)[C@H](CC(C)C)NC(=O)[C@@H](N)Cc1c[nH]cn1)C(=O)N[C@@H](C)C(=O)N[C@@H](CS)C(=O)N[C@@H](Cc1ccccc1)C(=O)N[C@H](C(=O)N[C@@H](CS)C(=O)N[C@@H](C)C(=O)N[C@@H](CCCCN)C(=O)N[C@@]1(C)CCCC=CCCC[C@@](C)(C(=O)O)NC(=O)[C@H](CCCCN)NC(=O)[C@H](CCCCN)NC(=O)[C@H](CC(C)C)NC1=O)[C@@H](C)O` [S11, His-Leu-Met-Ala-Cys-Phe-Thr-Cys-Ala-Lys-S5-Leu-Lys-Lys-S5] (H-HLMACFTCAK[S5]LKK[S5]-OH; staple 11-15; N-terminus and C-terminus assumed), the “hydroxyproline content (μg/mg protein)” value ([1]; Table 3 groups) was 0.7725 μg/mg protein, the “Dynamic compliance (mL/cmH2O)” value [2, 4] was 0.235 mL/cmH2O and the “Dynamic elasticity (cmH2O./mL)” value [2, 4] was 53 cmH2O./mL. For the same compound, the “Dynamic resistance (cmH2O · s/Ml)” value [2, 4] was 1.267 cmH2O · s/Ml, the “Inspiratory capacity” value [2, 4] was 0.658 mL and the “pulmonary function of mice” value ([2]; Table 3 groups, FIG. 11) was “improved”. It also gave an Inflammatory score [3] of 3.
“S19: chimeric polypeptide Pep2-MR2, amino acid sequence SEQ ID NO: 19 (HLYVSPWGGHLMACFTCAKKLKKR; chimeric polypeptide Pep2-MR2 S19)” was tested, and the “hydroxyproline content (μg/mg protein)” value ([1]; S19-S21 groups) was 0.5637 μg/mg protein, the “content of hydroxyproline in the lungs (in words)” value (from here on “content of hydroxyproline”) ([1]; S19-S21 groups) was “reduce hydroxyproline content” and the “Dynamic compliance (mL/cmH2O)” value ([2]; Table 9 groups, 28 days later) was 0.33 mL/cmH2O. For the same compound, the “Dynamic elasticity (cmH2O./mL)” value ([2]; Table 9 groups, 28 days later) was 38.67 cmH2O./mL, the “Dynamic resistance (cmH2O · s/Ml)” value ([2]; Table 9 groups, 28 days later) was 1.143 cmH2O · s/Ml and the “Inspiratory capacity” value ([2]; Table 9 groups, 28 days later) was 0.692 mL. For the same compound, the “pulmonary function of mice” value ([2]; Table 9 groups, FIG. 17) was “improved” and the Inflammatory scoring [3] was 1.833.
“S20: chimeric polypeptide TAT-MR2, amino acid sequence SEQ ID NO: 20 (YGRKKRRQRRRGGHLMACFTCAKKLKKR; chimeric polypeptide TAT-MR2 S20)” was tested, and the “hydroxyproline content (μg/mg protein)” value ([1]; S19-S21 groups) was 0.7443 μg/mg protein, the “content of hydroxyproline” value ([1]; S19-S21 groups) was “reduce hydroxyproline content” and the “Dynamic compliance (mL/cmH2O)” value ([2]; Table 9 groups, 28 days later) was 0.264 mL/cmH2O. For the same compound, the “Dynamic elasticity (cmH2O./mL)” value ([2]; Table 9 groups, 28 days later) was 52.17 cmH2O./mL, the “Dynamic resistance (cmH2O · s/Ml)” value ([2]; Table 9 groups, 28 days later) was 1.588 cmH2O · s/Ml and the “Inspiratory capacity” value ([2]; Table 9 groups, 28 days later) was 0.422 mL. For the same compound, the “pulmonary function of mice” value ([2]; Table 9 groups, FIG. 17) was “improved” and the Inflammatory scoring [3] was 2.333.
In the case of “S21: chimeric polypeptide Antp-MR2, amino acid sequence SEQ ID NO: 21 (RQIKIWFQNRRMKWKKGGHLMACFTCAKKLKKR; chimeric polypeptide Antp-MR2 S21)”, the “hydroxyproline content (μg/mg protein)” value ([1]; S19-S21 groups) was 0.7488 μg/mg protein, the “content of hydroxyproline” value ([1]; S19-S21 groups) was “reduce hydroxyproline content” and the “Dynamic compliance (mL/cmH2O)” value ([2]; Table 9 groups, 28 days later) was 0.264 mL/cmH2O. For the same compound, the “Dynamic elasticity (cmH2O./mL)” value ([2]; Table 9 groups, 28 days later) was 55.33 cmH2O./mL, the “Dynamic resistance (cmH2O · s/Ml)” value ([2]; Table 9 groups, 28 days later) was 1.355 cmH2O · s/Ml and the “Inspiratory capacity” value ([2]; Table 9 groups, 28 days later) was 0.616 mL. For the same compound, the “pulmonary function of mice” value ([2]; Table 9 groups, FIG. 17) was “improved” and the Inflammatory scoring [3] was 2.667.
